Test results: patent US20030220309A1, “17-methylenandrostan-3alpha-ol analogs as CRH inhibitors” (Pherin Pharmaceuticals, Inc., priority 2001, published 2003)

Experiments:
[1] = test system: normal adult male and female human volunteers; assay: Sleep evaluation after administration to the vomeronasal organ of normal human volunteers; assay type: in vivo; parameters: key: increase (↑); decrease (↓); no change (=); conditions: 400 pg administered to the VNO before bedtime, normal subjects, males and females combined, change with respect to placebo
Procedure: (§1) 17-Methylenandrost-4-en-3α-ol, 400 pg, or placebo were administered to the vomeronasal organs of normal adult male and female human volunteers using a delivery device which delivered the compound to the opening of the vomeronasal organ in measured quantity (two 2 second “puffs” of a 10^−8 M solution of the active ingredient in propylene glycol, or propylene glycol alone). The study evaluations included objective and subjective evaluations of sleep, a power spectral analysis of the subjects' electroencephalograms, and a pencil-and-paper self-report inventory (ABS-70) of the subjects' effective state.
The table below provides a comparison of the results from the study with 17-methylenandrost-4-en-3α-ol with literature reports on the effects of the effects of the marketed antidepressant paroxetine (Paxil®); where changes in sleep variables are indicated as an increase (↑), decrease (↓), or no change (=) with respect to placebo.
Comparative effects of 17-methylenandrost-4-en-3α-ol, 400 pg administered to the VNO, and paroxetine, 30 mg orally, given before bedtime in normal subjects: […]

[2] = test system: normal adult male and female human volunteers; assay: Power spectral analysis of electroencephalograms after vomeronasal administration; assay type: in vivo; conditions: 400 pg to the vomeronasal organ
Procedure: as §1
Based on this study, 17-methylenandrost-4-en-3α-ol shares antidepressant and stimulant properties with paroxetine and other selective serotonin reuptake inhibitor antidepressants.

CRH = assay: ACTH and cortisol concentrations in plasma and urine (indirect measure of CRH inhibition); assay type: in vivo; conditions: 400 pg to the vomeronasal organ, human volunteers
Procedure: The compounds of this invention are, when administered to the VNO, CRH inhibitors. Their activity as CRH inhibitors in vivo can be measured directly by measurement of the inhibition of CRH or indirectly by the measurement of other hormones, such as ACTH, and steroids, such as cortisol, associated with CRH, as discussed in the Examples.
as §1
(§2) 17-Methylenandrost-4-en-3α-ol also reduces plasma concentrations of ACTH and cortisol, and also reduces cortisol concentration in urine. It also increases, relative to placebo, concentrations of the neurotransmitters norepinephrine and serotonin in blood and their metabolites in urine.

[3] = test system: norepinephrine and serotonin; assay: Neurotransmitter concentrations in blood and metabolites in urine; assay type: in vivo; conditions: relative to placebo, human volunteers
Procedure: as §1, §2

[4] = test system: normal adult male and female human volunteers; assay: Overall outcome of the vomeronasal study (sleep, EEG, self-report); assay type: in vivo; conditions: administration to the vomeronasal organ
Procedure: as §1

normal subjects = test system: normal subjects; parameters: key: increase (↑); decrease (↓); no change (=); conditions: 30 mg orally before bedtime, change with respect to placebo, from Saletu et al. 1991; cited from earlier work

C=C1CC[C@H]2[C@@H]3CCC4=C[C@H](O)CC[C@]4(C)[C@H]3CC[C@]12C [17-Methylenandrost-4-en-3α-ol]
REM sleep latency [1]: ↑ | Sleep efficiency [1]: ↓ | Sleep latency [1]: ↑ | Stage 1 sleep time [1]: ↑ | Stage 2 sleep time [1]: ↑ | Stages 3 + 4 sleep time [1]: = | Total REM sleep time [1]: ↓ | Total sleep time [1]: ↓ | EEG β-wave activity [2]: increased | EEG θ-wave activity [2]: increased | δ-frequency activity in stages S3 and S4 non-REM sleep [2]: increase | plasma concentration of ACTH (CRH; plasma): reduces | plasma concentration of cortisol (CRH; plasma): reduces | cortisol concentration in urine (CRH; urine): reduces | concentration of norepinephrine in blood ([3]; blood): increases | concentration of serotonin in blood ([3]; blood): increases | concentrations of norepinephrine and serotonin metabolites in urine ([3]; urine): increases | overall study result (sleep, EEG, hormones, neurotransmitters) [4]: antidepressant properties

Fc1ccc([C@@H]2CCNC[C@H]2COc2ccc3c(c2)OCO3)cc1 [Paroxetine, paroxetine]
REM sleep latency (normal subjects): ↑ | Sleep efficiency (normal subjects): ↓ | Sleep latency (normal subjects): ↑ | Stage 1 sleep time (normal subjects): ↑ | Stage 2 sleep time (normal subjects): = | Stages 3 + 4 sleep time (normal subjects): = | Total REM sleep time (normal subjects): ↓ | Total sleep time (normal subjects): ↓
